Measured values published in US8703825B2, “Compounds, use thereof as medicaments, and method of preparation thereof” (Universite de Lorraine, priority 2008, dated 2014).

Test system: HaCaT and/or MRC5 eukaryotic cells
Format: cell-based, human
From the text: The eukaryotic cells used in our study are HaCaT cells (human keratinocytes), which were kindly supplied by the Pierre Fabre Institute (Toulouse, France); and MRC-5 cells (human embryonic fibroblasts), which were obtained from the company BioMérieux (Lyons, France). These cells are cultivated in DMEM (“Dulbecco's modified Eagle's medium”, Invitrogen 61965) for the HaCaT cells, and MEM (“modified Eagle's medium”, Invitrogen 41090); 10% of fetal calf serum (FCS, Invitrogen, 10270, Batch 40Q5150K) in a humid chamber at 37° C., under 5% CO2. The HaCaT and MRC-5 cells were seeded at 10^4 cells/well in 96-well plates (Sarstedt 831835). […]
It is based on the reduction of yellow tetrazolium salts to purple crystals of formazan, mainly by mitochondrial dehydrogenases. The quantity of formazan formed is proportional to the number of live cells. […] The absorbance is measured at 540 nm with a reference wavelength at 690 nm, using an ELISA plate reader (Multiskan E X, Thermo Electron Corporation, France). […]
The cytotoxicity test is based on incorporation of a vital dye, Neutral Red, in the lysosomes of the viable cells, after exposure of the cells to different concentrations of the test molecules. The quantity of dye, after extraction from the lysosomes, is quantified by means of a spectrophotometer and compared with that obtained in the case of “control” cells, not exposed to the test molecules. […]

N=C(N)NCCc1ccc(OCCCCCCOc2ccc(CCNC(=N)N)cc2)cc1 [compound 6, 1,6-bis(4-(2-guanidinoethyl)phenoxy)hexane]
effect on viability and cytotoxicity (in words): slightly less pronounced effect on viability and cytotoxicity
